The values that follow come from US10054581B1, “Inhibitors of notch signaling pathway and use thereof in treatment of cancers” (Ecole Polytechnique Federale de Lausanne (EPFL), priority 2011, dated 2018).

The target in test [1] is T1, NICD, MAML1 and CSL/RBP-jk (Homo sapiens, UniProt P46531+Q06330+Q92585).
T1 construct: expressed in transfected cells; host or cells: HeLa cells (NICD-GFP and MAML1-FLAG transfected; CSL/RBP-jk endogenous)
Description: Microscopy of NICD-GFP, MAML1-FLAG and CSL/RBP-jk localization in HeLa cells. It counts as cell-based. The method, then:
To perform immunofluorescence staining, HeLa cells or C2C12 cells were grown on cover slips. Cells were washed with 1× ice-cold PBS, fixed with 4% PFA for 5 minutes at room temperature and permeabilized using 0.3% Triton X-100. Subsequently permeabilized cells were blocked for 20 minutes with 1% BSA for 20 minutes at room temperature. Cells were incubated with appropriate primary antibodies for […] at room temperature. Alexa Fluor-488 conjugated secondary antibodies were used to detect primary antibodies. Cells were counterstained with DAPI and mounted in fluorescent mounting media. Fluorescent images were viewed and captured using Zeiss Axioplan microscope at Bioimaging and optics core facility at EPFL.
This raises several possibilities about the mechanism of action of 6-(4-Tert-Butylphenoxy)Pyridin-3-Amine (I3). For example, 6-(4-Tert-Butylphenoxy)Pyridin-3-Amine (I3) treatment could impair nuclear localization of the NICD. A second possible mechanism of inhibition could be targeting of one or more individual components of the transcriptional activation complex in the nucleus. […] In parallel, the 6-(4-Tert-Butylphenoxy)Pyridin-3-Amine (I3) mediated pathway inhibition was determined by Notch driven luciferase measurement (data not shown). […]

For another test, the system named is HPB ALL. Description: Annexin V apoptosis, HPB ALL. It counts as cell-based, human. As to conditions: 10 μM, 7 days. As for the experimental part: (§1) FIGS. 6A-6D show 6-(4-Tert-Butylphenoxy)Pyridin-3-Amine (I3) induces G0/G1 cell cycle arrest and apoptosis in human T cell acute lymphoblastic leukemia cell lines and human breast cancer cell line HCC1187. […] Percentage of Annexin V positive (apoptotic) cell population was measured using flow cytometry.
To quantitate the percentage of apoptotic cells, AnnexinV and 7AAD staining was performed. Thymic cells were suspended in 300 μl of 1× AnnexinV binding buffer (BD Biosciences, San Diego, USA) and incubated with 10 μl of AnnexinV-Cy5 antibody and 10 μl of 7AAD (BD Biosciences, San Diego, USA). Samples were incubated for 15 minutes at room temperature. FACS was performed with in one hour of antibody staining.
This 6-(4-Tert-Butylphenoxy)Pyridin-3-Amine (I3) mediated proliferative arrest could be due to induction of apoptosis or cell cycle arrest during different phases of cell cycle. […] Therefore to further elucidate the mechanisms responsible for 6-(4-Tert-Butylphenoxy)Pyridin-3-Amine (I3) mediated proliferative arrest cell cycle and apoptosis analyses were carried out. […] To investigate cell death, Annexin V staining was performed and proportion of apoptotic (AnnexinV positive) cell population was determined by flow cytometry analyses after 7 days of treatment.

A further test deals with HCC1187. Description: Cell cycle analysis (Ki67 and Hoechst stain), HCC1187. It counts as cell-based, human. The note with it: 10 μM, 48 hours. As for the experimental part:
as §1
In addition to induction of apoptosis, the proliferative arrest observed in 6-(4-Tert-Butylphenoxy)Pyridin-3-Amine (I3) treated human leukemic cell lines and breast cancer cell line also appears to be due to cell cycle arrest in G0/G1 phase of the cell cycle. Leukemic cell lines (RPMI8402, KOPTK1 and TALL1) and breast cancer cell lines were treated with 6-(4-Tert-Butylphenoxy)Pyridin-3-Amine (I3) for 48 hours and cell cycle status was determined using Ki67 and Hoechst stain.

In a further test the test system is MZB cells in the spleen. The experiment in a line: Marginal Zone B cell development in the spleen (flow cytometry). It is filed as in vivo, mouse. The note with it: 25 mg/kg, 7 consecutive days, analysed day 8. As for the experimental part:
FIGS. 7A-7C show 6-(4-Tert-Butylphenoxy)Pyridin-3-Amine (I3) mimics genetic loss of Notch2 signalling phenotype in the spleen. Loss of Notch signalling in the spleen leads to a reduction in Marginal Zone B cells (MZB) cells in the spleen. […] Spleens were analyzed on day 8. Using B220 specific antibodies, B cells in the spleen were identified. MZB cells within the B cell compartment were detected using antibodies against CD23 and CD21 cell surface markers.
Fluorescence activated cell sorting (FACS) analyses were performed on CyAn™ ADP instrument platform for flow cytometry at Flow cytometry core facility, EPFL. DL4 and Notch1 expression in DL4- and N1-HeLa cells was determined using anti-DL4 and anti-N1 antibodies respectively. T cell development in the thymus was investigated using antibodies against CD4, CD8 and TCRβ. MZB cell development was monitored using antibodies against B220, CD21 and CD23. In brief, a single cell suspension was prepared from thymus and spleen. […]
Applicants hypothesized that 6-(4-Tert-Butylphenoxy)Pyridin-3-Amine (I3) mediated inhibition of Notch2 signalling should lead to a block in MZB cell development in the spleen. MZB cell development was assessed by flow cytometry staining of splenocytes with antibodies directed against B220, CD21 and CD23.
In general terms: In flow cytometry, cells or beads pass a laser one at a time.

Entries after “also recorded” stand apart in the source; their conditions may differ.

T1 sequence (P46531 1754-2555 limits assumed): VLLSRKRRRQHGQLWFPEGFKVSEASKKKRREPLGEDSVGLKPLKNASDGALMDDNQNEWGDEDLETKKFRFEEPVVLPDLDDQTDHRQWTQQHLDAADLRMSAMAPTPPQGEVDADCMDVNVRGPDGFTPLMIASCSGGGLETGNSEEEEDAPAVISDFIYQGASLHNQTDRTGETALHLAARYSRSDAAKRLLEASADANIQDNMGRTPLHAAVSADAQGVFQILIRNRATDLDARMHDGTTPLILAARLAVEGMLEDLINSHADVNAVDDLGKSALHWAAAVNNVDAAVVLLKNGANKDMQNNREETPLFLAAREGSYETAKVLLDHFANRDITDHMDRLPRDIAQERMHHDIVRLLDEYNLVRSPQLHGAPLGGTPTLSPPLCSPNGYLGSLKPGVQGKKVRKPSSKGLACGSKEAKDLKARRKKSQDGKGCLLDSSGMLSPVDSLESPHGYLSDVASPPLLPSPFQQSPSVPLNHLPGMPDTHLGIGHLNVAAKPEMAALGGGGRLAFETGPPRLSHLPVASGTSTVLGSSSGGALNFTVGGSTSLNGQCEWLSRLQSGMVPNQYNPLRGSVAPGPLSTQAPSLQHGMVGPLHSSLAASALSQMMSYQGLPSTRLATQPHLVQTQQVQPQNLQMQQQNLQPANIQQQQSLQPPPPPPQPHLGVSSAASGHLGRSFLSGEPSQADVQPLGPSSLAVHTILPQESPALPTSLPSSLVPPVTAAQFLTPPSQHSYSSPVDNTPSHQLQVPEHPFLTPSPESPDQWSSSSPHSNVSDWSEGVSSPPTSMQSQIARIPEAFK
T1 sequence (Q92585 whole entry): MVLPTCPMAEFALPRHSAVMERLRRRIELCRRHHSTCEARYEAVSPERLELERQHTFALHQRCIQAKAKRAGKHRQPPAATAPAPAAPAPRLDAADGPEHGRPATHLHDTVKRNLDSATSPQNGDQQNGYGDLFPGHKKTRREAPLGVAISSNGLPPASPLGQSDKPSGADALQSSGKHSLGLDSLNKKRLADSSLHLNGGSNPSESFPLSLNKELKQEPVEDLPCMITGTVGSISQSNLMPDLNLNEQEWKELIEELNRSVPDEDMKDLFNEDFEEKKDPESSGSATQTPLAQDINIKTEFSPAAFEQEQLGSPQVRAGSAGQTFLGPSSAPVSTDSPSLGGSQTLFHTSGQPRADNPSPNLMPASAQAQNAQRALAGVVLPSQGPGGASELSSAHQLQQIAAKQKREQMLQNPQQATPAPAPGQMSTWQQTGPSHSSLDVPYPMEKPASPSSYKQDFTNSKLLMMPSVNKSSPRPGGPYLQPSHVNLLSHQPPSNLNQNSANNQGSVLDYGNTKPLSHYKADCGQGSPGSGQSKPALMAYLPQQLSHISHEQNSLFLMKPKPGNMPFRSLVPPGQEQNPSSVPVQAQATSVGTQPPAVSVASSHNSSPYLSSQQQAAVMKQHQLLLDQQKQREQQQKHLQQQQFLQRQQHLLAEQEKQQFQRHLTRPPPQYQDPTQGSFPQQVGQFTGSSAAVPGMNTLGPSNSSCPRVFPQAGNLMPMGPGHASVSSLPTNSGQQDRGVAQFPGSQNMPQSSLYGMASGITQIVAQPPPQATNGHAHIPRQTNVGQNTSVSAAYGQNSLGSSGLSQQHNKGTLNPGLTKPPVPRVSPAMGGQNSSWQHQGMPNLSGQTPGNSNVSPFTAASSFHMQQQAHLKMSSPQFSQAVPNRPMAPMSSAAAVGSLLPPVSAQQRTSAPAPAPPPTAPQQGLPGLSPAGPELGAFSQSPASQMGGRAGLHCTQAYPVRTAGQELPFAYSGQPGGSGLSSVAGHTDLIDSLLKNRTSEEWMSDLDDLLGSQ
T1 sequence (Q06330 whole entry): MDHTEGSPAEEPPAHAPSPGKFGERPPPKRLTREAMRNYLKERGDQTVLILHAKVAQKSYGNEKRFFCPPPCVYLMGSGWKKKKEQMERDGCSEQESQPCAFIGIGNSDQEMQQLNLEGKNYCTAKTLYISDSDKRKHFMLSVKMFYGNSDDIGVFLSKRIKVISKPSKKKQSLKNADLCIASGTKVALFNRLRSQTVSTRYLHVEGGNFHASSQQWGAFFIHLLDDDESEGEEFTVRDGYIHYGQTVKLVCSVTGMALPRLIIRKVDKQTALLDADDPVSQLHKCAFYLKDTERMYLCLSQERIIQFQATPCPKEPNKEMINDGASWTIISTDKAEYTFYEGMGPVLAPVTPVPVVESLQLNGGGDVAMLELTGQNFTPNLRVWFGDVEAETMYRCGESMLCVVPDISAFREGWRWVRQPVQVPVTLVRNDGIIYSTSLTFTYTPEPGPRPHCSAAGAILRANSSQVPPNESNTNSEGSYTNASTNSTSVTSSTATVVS

For the compound `CC(C)(C)c1ccc(Oc2ccc(N)cn2)cc1` [I3, 6-(4-Tert-Butylphenoxy)Pyridin-3-Amine], the “co-localization of NICD, MAML1 and CSL/RBP-jk in sub-nuclear compartments” value in test [1] (800 ng NICD-GFP + 1 μg MAML1-FLAG, I3 10 μM, 24 hours) was “did not perturb the translocation and co-localization of NICD-GFP and MAML1 into sub-nuclear compartment; also recorded: did not perturb their distribution in the nucleus; also recorded: does not impede co-localization of NICD, MAML1 and CSL/RBP-jk in the sub-nuclear compartments”. Also, the “nuclear localization of NICD-GFP” value in test [1] (HeLa cells transfected with NICD-GFP) is on record as “not perturbed; also recorded: did not alter its nuclear localization”. The “apoptosis (Annexin V positive cells)” value in the test with HPB ALL was “induces significant apoptosis”. Besides, in the test on HCC1187, the cell cycle status entry is “induces an arrest in the G0/G1 phase of the cell cycle”. In the test with MZB cells in the spleen, the “absolute numbers of MZB cells in the spleen” value is “loss of MZB cell population in the spleen also reflects in the absolute number of MZB cells; also recorded: causes a reduction the percentage and absolute numbers of MZB cells in the spleen”; the “percentage of MZB cells in the spleen” value was “leads to a reduction in the percentage of MZB cell population in the spleen; also recorded: causes a significant reduction in the percentage of MZB cells in the spleen; also recorded: causes a reduction the percentage and absolute numbers of MZB cells in the spleen”.
